Results: patent US11634390B2, “Agricultural chemicals” (GLOBACHEM NV, priority 2016, dated 2023)

Legend:
Type in all cases: in vivo
Stellaria media = assay: Herbicidal screen, post-emergence spray of seedlings in pots: Chickweed; conditions: Stellaria media, post-emergence, 240 h, assessed 10 days after treatment, read-out: percentage increase in necrosis relative to the control
Method: (§1) Compounds were screened at four concentrations (100, 50, 25 and 12.5 g/ha) against four weed species (Stellaria media—Chickweed; Abutilon theophrasti—velvetleaf; Amaranthus retroflexus—common amaranthus; Echinochloa crus-galli—Barnyard grass) and maize as a crop species. Seed were sown in 12.5 cm diameter pots (20 per pot for the weed species and 5 for maize). Seedlings were sprayed with 2 ml of compound two weeks after sowing, with 2 ml water used as the control. Each treatment was replicated three times. Plants were maintained at 20° C. and assessed 10 days after treatment. The assessment was based on the % plant in each pot showing growth. The data is presented in Table 1 in which d represents no detected effect at this concentration; c represents a percentage increase in necrosis relative to the control of 0.1-50; b represents a percentage increase in necrosis of 50-80; and a represents a percentage increase in necrosis of 80-100.

Abutilon theophrasti = assay: Herbicidal screen, post-emergence spray of seedlings in pots: velvetleaf; conditions: Abutilon theophrasti, post-emergence, 240 h, assessed 10 days after treatment, read-out: percentage increase in necrosis relative to the control
Method: as §1

Amaranthus retroflexus = assay: Herbicidal screen, post-emergence spray of seedlings in pots: common amaranthus; conditions: Amaranthus retroflexus, post-emergence, 240 h, assessed 10 days after treatment, read-out: percentage increase in necrosis relative to the control
Method: as §1

Echinochloa crus-galli = assay: Herbicidal screen, post-emergence spray of seedlings in pots: Barnyard grass; conditions: Echinochloa crus-galli, post-emergence, 240 h, assessed 10 days after treatment, read-out: percentage increase in necrosis relative to the control
Method: as §1

maize = assay: Herbicidal screen, post-emergence spray of seedlings in pots: crop species; conditions: Zea mays, post-emergence, 240 h, assessed 10 days after treatment, read-out: percentage increase in necrosis relative to the control
Method: as §1

four weed species = assay: Herbicidal screen, summary across the four weed species; conditions: summary in words, 12.5-100 g/ha
Method: as §1

## Cn1c(C(F)(F)F)cc(=O)n(-c2cc(C(=O)NS(=O)(=O)C3CCCC3)c(Cl)cc2F)c1=O [Example 13, 2-Chloro-N-(cyclopentylsulfonyl)-4-fluoro-5-(3-methyl-2,6-dioxo-4-(trifluoromethyl)-3,6-dihydropyrimidin-1(2H)-yl)benzamide]
Stellaria media
  pest or weed control at 12.5 g/ha: 0.1 to 50%
  pest or weed control at 25 g/ha: 0.1 to 50%
  pest or weed control at 50 g/ha: 0.1 to 50%
  pest or weed control at 100 g/ha: 0.1 to 50%
Abutilon theophrasti
  pest or weed control at 12.5 g/ha: 0.1 to 50%
  pest or weed control at 25 g/ha: 50 to 80%
  pest or weed control at 50 g/ha: 50 to 80%
  pest or weed control at 100 g/ha: 80 to 100%
Amaranthus retroflexus
  pest or weed control at 12.5 g/ha: 50 to 80%
  pest or weed control at 25 g/ha: 50 to 80%
  pest or weed control at 50 g/ha: 80 to 100%
  pest or weed control at 100 g/ha: 80 to 100%
Echinochloa crus-galli
  pest or weed control at 12.5 g/ha: 0.1 to 50%
  pest or weed control at 25 g/ha: 0.1 to 50%
  pest or weed control at 50 g/ha: 0.1 to 50%
  pest or weed control at 100 g/ha: 0.1 to 50%
maize
  plant injury at 12.5 g/ha: 0.1 to 50%
  plant injury at 25 g/ha: 0.1 to 50%
  plant injury at 50 g/ha: 0.1 to 50%
  plant injury at 100 g/ha: 0.1 to 50%
Four weed species
  herbicidal activity against the weed species: good activity across several of the weed species

## CN1CCC(S(=O)(=O)NC(=O)c2cc(-n3c(=O)cc(C(F)(F)F)n(C)c3=O)c(F)cc2Cl)C1.Cl (stereo not drawn) [Example 5, 2-Chloro-4-fluoro-5-(3-methyl-2,6-dioxo-4-(trifluoromethyl)-3,6-dihydropyrimidin-1(2H)-yl)-N-((1-methylpyrrolidin-3-yl)sulfonyl)benzamide hydrochloride]
Stellaria media
  pest or weed control at 12.5 g/ha: 0.1 to 50%
  pest or weed control at 25 g/ha: 0.1 to 50%
  pest or weed control at 50 g/ha: 50 to 80%
  pest or weed control at 100 g/ha: 50 to 80%
Abutilon theophrasti
  pest or weed control at 12.5 g/ha: 0.1 to 50%
  pest or weed control at 25 g/ha: 50 to 80%
  pest or weed control at 50 g/ha: 80 to 100%
  pest or weed control at 100 g/ha: 80 to 100%
Amaranthus retroflexus
  pest or weed control at 12.5 g/ha: 80 to 100%
  pest or weed control at 25 g/ha: 80 to 100%
  pest or weed control at 50 g/ha: 80 to 100%
  pest or weed control at 100 g/ha: 80 to 100%
Echinochloa crus-galli
  pest or weed control at 12.5 g/ha: 0.1 to 50%
  pest or weed control at 25 g/ha: 0.1 to 50%
  pest or weed control at 50 g/ha: 0.1 to 50%
  pest or weed control at 100 g/ha: 50 to 80%
maize
  plant injury at 12.5 g/ha: 0.1 to 50%
  plant injury at 25 g/ha: 0.1 to 50%
  plant injury at 50 g/ha: 0.1 to 50%
  plant injury at 100 g/ha: 0.1 to 50%
Four weed species
  herbicidal activity against the weed species: good activity across several of the weed species

## Cl.Cn1c(C(F)(F)F)cc(=O)n(-c2cc(C(=O)NS(=O)(=O)C3CCNCC3)c(Cl)cc2F)c1=O [Example 2, 2-Chloro-4-fluoro-5-(3-methyl-2,6-dioxo-4-(trifluoromethyl)-3,6-dihydropyrimidin-1(2H)-yl)-N-(piperidin-4-ylsulfonyl)benzamide hydrochloride]
Stellaria media
  pest or weed control at 12.5 g/ha: 50 to 80%
  pest or weed control at 25 g/ha: 50 to 80%
  pest or weed control at 50 g/ha: 50 to 80%
  pest or weed control at 100 g/ha: 80 to 100%
Abutilon theophrasti
  pest or weed control at 12.5 g/ha: 50 to 80%
  pest or weed control at 25 g/ha: 50 to 80%
  pest or weed control at 50 g/ha: 50 to 80%
  pest or weed control at 100 g/ha: 80 to 100%
Amaranthus retroflexus
  pest or weed control at 12.5 g/ha: 80 to 100%
  pest or weed control at 25 g/ha: 80 to 100%
  pest or weed control at 50 g/ha: 80 to 100%
  pest or weed control at 100 g/ha: 80 to 100%
Echinochloa crus-galli
  pest or weed control at 12.5 g/ha: 0.1 to 50%
  pest or weed control at 25 g/ha: 50 to 80%
  pest or weed control at 50 g/ha: 50 to 80%
  pest or weed control at 100 g/ha: 80 to 100%
maize
  plant injury at 12.5 g/ha: 0.1 to 50%
  plant injury at 25 g/ha: 0.1 to 50%
  plant injury at 50 g/ha: 50 to 80%
  plant injury at 100 g/ha: 50 to 80%
Four weed species
  herbicidal activity against the weed species: good activity across several of the weed species
